Entries after “also recorded” stand apart in the source; their conditions may differ. Activity calls are given as the source filed them. The rule behind the calls is not given here.
Tested on: CCRIS mutagenicity, Ames/micronucleus/aberration tests
Test: CCRIS mutagenicity studies

Compound: OO
- mutagenic call (End Point: IN VITRO CHROMOSOMAL ABERRATIONS, Test System: CHO CELLS, Metabolic Activation: NONE): active; positive (structural changes)
- mutagenic call (End Point: IN VITRO CHROMOSOMAL ABERRATIONS, Test System: CHO-K1, Metabolic Activation: NONE): active; positive
- mutagenic call (End Point: IN VITRO CHROMOSOMAL ABERRATIONS, Test System: SYRIAN HAMSTER EMBRYO (SHE) CELLS, Metabolic Activation: NONE): active; positive (structural changes)
- mutagenic call (End Point: IN VITRO MICRONUCLEUS, Test System: CHL/IU CELLS, Metabolic Activation: NONE): active; positive
- mutagenic call (End Point: IN VITRO MICRONUCLEUS, Test System: CHO CELLS, Metabolic Activation: RAT, LIVER, S-9, AROCLOR 1254): inactive; negative
- mutagenic call (End Point: IN VITRO MICRONUCLEUS, Test System: HUMAN LYMPHOCYTES, Metabolic Activation: NONE): inactive; negative; main effect of h2o2 was necrosis
- mutagenic call (End Point: In vitro micronucleus, Test System: Chinese hamster V79 cells, Metabolic Activation: None): active; positive (hibiscus tiliaceus l methanolic extract at doses above 0.010 mg/ml had
- mutagenic call (End Point: In vitro micronucleus, Test System: Chinese hamster ovary (CHO) cells, Metabolic Activation: None): active; positive (lycopene (10, 25 and 50 um) significantly reduced the number of micron
- mutagenic call (Test System: AMES SALMONELLA TYPHIMURIUM, Strain/Indicator: SB1106, Metabolic Activation: NONE, Method: PREINCUBATION): active; positive
- mutagenic call (Test System: AMES SALMONELLA TYPHIMURIUM, Strain/Indicator: SB1106, Metabolic Activation: NONE, Method: STANDARD PLATE): active; positive
- mutagenic call (Test System: AMES SALMONELLA TYPHIMURIUM, Strain/Indicator: SB1106P, Metabolic Activation: NONE, Method: PREINCUBATION): active; positive
- mutagenic call (Test System: AMES SALMONELLA TYPHIMURIUM, Strain/Indicator: SB1106P, Metabolic Activation: NONE, Method: STANDARD PLATE): active; positive
- mutagenic call (Test System: AMES SALMONELLA TYPHIMURIUM, Strain/Indicator: SB1111, Metabolic Activation: NONE, Method: PREINCUBATION): inactive; negative
- mutagenic call (Test System: AMES SALMONELLA TYPHIMURIUM, Strain/Indicator: SB1111, Metabolic Activation: NONE, Method: STANDARD PLATE): active; positive
- mutagenic call (Test System: AMES SALMONELLA TYPHIMURIUM, Strain/Indicator: TA92, Metabolic Activation: NONE, Method: PREINCUBATION): inactive; negative
- mutagenic call (Test System: AMES SALMONELLA TYPHIMURIUM, Strain/Indicator: TA97, Metabolic Activation: NONE, Method: STANDARD PLATE): active; positive
- mutagenic call (Test System: AMES SALMONELLA TYPHIMURIUM, Strain/Indicator: TA97, Metabolic Activation: RAT, LIVER, S-9, PHENOBARBITAL, Method: LIQUID INCUBATION): active; positive
- mutagenic call (Test System: AMES SALMONELLA TYPHIMURIUM, Strain/Indicator: TA97, Metabolic Activation: RAT, LIVER, S-9, PHENOBARBITAL, Method: STANDARD PLATE): active; positive
- mutagenic call (Test System: AMES SALMONELLA TYPHIMURIUM, Strain/Indicator: TA98, Metabolic Activation: NONE, Method: PREINCUBATION): inactive; negative
- mutagenic call (Test System: AMES SALMONELLA TYPHIMURIUM, Strain/Indicator: TA98, Metabolic Activation: NONE, Method: STANDARD PLATE): inactive; negative
- mutagenic call (Test System: AMES SALMONELLA TYPHIMURIUM, Strain/Indicator: TA98, Metabolic Activation: RAT, LIVER, S-9, AROCLOR 1254, Method: PREINCUBATION): inactive; negative
- mutagenic call (Test System: AMES SALMONELLA TYPHIMURIUM, Strain/Indicator: TA98, Metabolic Activation: RAT, LIVER, S-9, AROCLOR 1254, Method: STANDARD PLATE): inactive; negative
- mutagenic call (Test System: AMES SALMONELLA TYPHIMURIUM, Strain/Indicator: TA100, Metabolic Activation: NONE, Method: PREINCUBATION): inactive; negative
- mutagenic call (Test System: AMES SALMONELLA TYPHIMURIUM, Strain/Indicator: TA100, Metabolic Activation: NONE, Method: STANDARD PLATE): active; positive
- mutagenic call (Test System: AMES SALMONELLA TYPHIMURIUM, Strain/Indicator: TA100, Metabolic Activation: RAT, LIVER, S-9, AROCLOR 1254, Method: PREINCUBATION): inactive; negative
- mutagenic call (Test System: AMES SALMONELLA TYPHIMURIUM, Strain/Indicator: TA100, Metabolic Activation: RAT, LIVER, S-9, AROCLOR 1254, Method: STANDARD PLATE): active; positive
- mutagenic call (Test System: AMES SALMONELLA TYPHIMURIUM, Strain/Indicator: TA102, Metabolic Activation: RAT, LIVER, S-9, AROCLOR 1254, Method: PREINCUBATION): inactive; negative
- mutagenic call (Test System: AMES SALMONELLA TYPHIMURIUM, Strain/Indicator: TA104, Metabolic Activation: NONE, Method: PREINCUBATION): active; positive
- mutagenic call (Test System: AMES SALMONELLA TYPHIMURIUM, Strain/Indicator: TA104, Metabolic Activation: NONE, Method: STANDARD PLATE): active; positive
- mutagenic call (Test System: AMES SALMONELLA TYPHIMURIUM, Strain/Indicator: TA1535, Metabolic Activation: NONE, Method: PREINCUBATION): inactive; negative
- mutagenic call (Test System: AMES SALMONELLA TYPHIMURIUM, Strain/Indicator: TA1535, Metabolic Activation: NONE, Method: STANDARD PLATE): inactive; negative
- mutagenic call (Test System: AMES SALMONELLA TYPHIMURIUM, Strain/Indicator: TA1535, Metabolic Activation: RAT, LIVER, S-9, AROCLOR 1254, Method: STANDARD PLATE): inactive; negative
- mutagenic call (Test System: AMES SALMONELLA TYPHIMURIUM, Strain/Indicator: TA1537, Metabolic Activation: NONE, Method: STANDARD PLATE): inactive; negative
- mutagenic call (Test System: AMES SALMONELLA TYPHIMURIUM, Strain/Indicator: TA1537, Metabolic Activation: RAT, LIVER, S-9, AROCLOR 1254, Method: STANDARD PLATE): inactive; negative
- mutagenic call (Test System: AMES SALMONELLA TYPHIMURIUM, Strain/Indicator: TA1537, Metabolic Activation: RAT, LIVER, S-9, PHENOBARBITAL, Method: LIQUID INCUBATION): active; positive
- mutagenic call (Test System: AMES SALMONELLA TYPHIMURIUM, Strain/Indicator: TA1537, Metabolic Activation: RAT, LIVER, S-9, PHENOBARBITAL, Method: STANDARD PLATE): active; positive
- mutagenic call (Test System: AMES SALMONELLA TYPHIMURIUM, Strain/Indicator: TA1538, Metabolic Activation: NONE, Method: STANDARD PLATE): inactive; negative
- mutagenic call (Test System: AMES SALMONELLA TYPHIMURIUM, Strain/Indicator: TA1538, Metabolic Activation: RAT, LIVER, S-9, AROCLOR 1254, Method: STANDARD PLATE): inactive; negative
- mutagenic call (Test System: AMES SALMONELLA TYPHIMURIUM, Strain/Indicator: TA1975, Metabolic Activation: NONE, Method: PREINCUBATION): inactive; negative
- mutagenic call (Test System: AMES SALMONELLA TYPHIMURIUM, Strain/Indicator: TA2638, Metabolic Activation: NONE, Method: STANDARD PLATE): active; positive
- mutagenic call (Test System: AMES SALMONELLA TYPHIMURIUM, Strain/Indicator: TA2638A, Metabolic Activation: NONE, Method: STANDARD PLATE): active; positive
- mutagenic call (Test System: AMES SALMONELLA TYPHIMURIUM, Strain/Indicator: YG3001, Metabolic Activation: NONE, Method: PREINCUBATION): inactive; negative
- mutagenic call (Test System: AMES SALMONELLA TYPHIMURIUM, Strain/Indicator: YG3002, Metabolic Activation: NONE, Method: PREINCUBATION): inactive; negative
- mutagenic call (Test System: AMES SALMONELLA TYPHIMURIUM, Strain/Indicator: YG3003, Metabolic Activation: NONE, Method: PREINCUBATION): active; positive
- mutagenic call (Test System: Ames Salmonella typhimurium, Strain/Indicator: TA102, Metabolic Activation: None, Method: Preincubation): active; positive (decrease in mutagenicity when 0.99-15.90 mg/plate of chloroform extrac; also recorded: active; positive (dose related decrease in mutagenicity when 1.82-7.30 mg/plate of metha
- mutagenic call (Test System: Ames Salmonella typhimurium, Strain/Indicator: TA102, Metabolic Activation: Rat, Liver, S-9, Aroclor 1254, Method: Preincubation): active; positive (decrease in mutagenicity when 0.99-15.90 mg/plate of chloroform extrac; also recorded: active; positive (decrease in mutagenicity when 0.46 or 0.91 mg/plate of methanol extrac
- mutagenic call (Test System: CHINESE HAMSTER G10, Strain/Indicator: G10 (GPT)/6-THIOGUANINE, Metabolic Activation: NONE): inactive; negative
- mutagenic call (Test System: CHINESE HAMSTER G12, Strain/Indicator: G12 (GPT)/6-THIOGUANINE, Metabolic Activation: NONE): active; positive
- mutagenic call (Test System: CHINESE HAMSTER V79 CELLS, Strain/Indicator: V79 CELLS (HPRT)/6-THIOGUANINE, Metabolic Activation: NONE, Method: PREINCUBATION): inactive; negative
- mutagenic call (Test System: CHINESE HAMSTER V-79, Strain/Indicator: V-79 (HPRT)/6-THIOGUANINE, Metabolic Activation: NONE): inactive; negative
- mutagenic call (Test System: CHINESE HAMSTER V-79, Strain/Indicator: V-79/6-THIOGUANINE, Metabolic Activation: NONE, Method: FLASK ASSAY): inactive; negative
- mutagenic call (Test System: CHINESE HAMSTER V-79, Strain/Indicator: V-79/6-THIOGUANINE, Metabolic Activation: NONE, Method: STANDARD PLATE): active; positive
- mutagenic call (Test System: CHINESE HAMSTER V-79, Strain/Indicator: V-79/8-AZAGUANINE, Metabolic Activation: NONE): active; positive
- mutagenic call (Test System: Chinese hamster ovary cells, Strain/Indicator: EM9 (HPRT)/6-Thioguanine, Metabolic Activation: None): active; positive
- mutagenic call (Test System: E. COLI, Strain/Indicator: WP2 (PKM101), Metabolic Activation: NONE, Method: STANDARD PLATE): active; positive
- mutagenic call (Test System: E. COLI, Strain/Indicator: WP2, Metabolic Activation: NONE, Method: STANDARD PLATE): inactive; negative
- mutagenic call (Test System: E. COLI, Strain/Indicator: WP2, Metabolic Activation: RAT, LIVER, S-9, AROCLOR 1254, Method: STANDARD PLATE): inactive; negative
- mutagenic call (Test System: E. COLI, Strain/Indicator: WP2 UVRA (PKM101), Metabolic Activation: NONE, Method: STANDARD PLATE): active; positive
- mutagenic call (Test System: HCT116 COLON CANCER CELLS, Strain/Indicator: HCT116 CELLS (HPRT)/6-THIOGUANINE, Metabolic Activation: NONE, Method: PREINCUBATION): active; positive
- mutagenic call (Test System: HUMAN T LYMPHOCYTES, Strain/Indicator: PRIMARY CULTURES (HPRT)/6-THIOGUANINE, Metabolic Activation: NONE, Method: PREINCUBATION): active; positive
- mutagenic call (Test System: MOUSE LYMPHOMA, Strain/Indicator: L5178Y (TK+/TK-), Metabolic Activation: NONE, Method: SUSPENSION/PLATE): active; positive
- mutagenic call (Test System: UDS HUMAN FIBROBLASTS, Strain/Indicator: THY INCORP (NON-S-PHASE), Metabolic Activation: NONE, Method: AUTORADIOGRAPHY): active; positive
- mutagenic call (Test System: UDS HUMAN FIBROBLASTS, Strain/Indicator: THY INCORP, Metabolic Activation: NONE, Method: AUTORADIOGRAPHY): active; positive
